Data taken from the NIST ThermoML archive (doi:10.1016/j.jct.2015.08.013).
± gives the expanded uncertainty stated by the source.

What was measured:
[1] = xn = mol fraction of the nth substance listed; settings: 100 kPa, Liquid, x1 = 1; for mass density: Vibrating tube method; for viscosity: Capillary tube (Ostwald / Ubbelohde) method
[2] = 100 kPa, Liquid; for viscosity: Capillary tube (Ostwald / Ubbelohde) method; for mass density: Vibrating tube method

| Structure (SMILES) | mass density ([1]; 293.15 K) | viscosity ([1]; 298.15 K) | mass density ([1]; 298.15 K) | viscosity ([1]; 303.15 K) | mass density ([1]; 303.15 K) | viscosity ([1]; 308.15 K) | mass density ([1]; 308.15 K) | viscosity ([1]; 313.15 K) | mass density ([1]; 313.15 K) | viscosity ([1]; 318.15 K) | mass density ([1]; 318.15 K) | viscosity ([1]; 323.15 K) | mass density ([1]; 323.15 K) | viscosity ([2]; 298.15 K) | viscosity ([2]; 303.15 K) | viscosity ([2]; 308.15 K) | viscosity ([2]; 313.15 K) | viscosity ([2]; 318.15 K) | viscosity ([2]; 323.15 K) | also measured |
| --- | --- | --- | --- | --- | --- | --- | --- | --- | --- | --- | --- | --- | --- | --- | --- | --- | --- | --- | --- | --- |
| CN1CCCC1=O [N-methylpyrrolidone] + O=C1CCCO1 | 1032.66 ± 1.6 kg/m3 | 1.677 ± 0.036 mPa·s | 1028.17 ± 1.6 kg/m3 | 1.536 ± 0.033 mPa·s | 1023.6 ± 1.6 kg/m3 | 1.429 ± 0.03 mPa·s | 1019.49 ± 1.6 kg/m3 | 1.338 ± 0.029 mPa·s | 1014.74 ± 1.6 kg/m3 | 1.248 ± 0.027 mPa·s | 1010.2 ± 1.6 kg/m3 | 1.178 ± 0.025 mPa·s | 1005.89 ± 1.6 kg/m3 | – | – | – | – | – | – | – |
| CC1COC(=O)O1 (stereo not given) [4-methyl-1,3-dioxolan-2-one] | – | – | – | – | – | – | – | – | – | – | – | – | – | 2.52 ± 0.052 mPa·s | 2.27 ± 0.047 mPa·s | 2.08 ± 0.043 mPa·s | 1.91 ± 0.04 mPa·s | 1.75 ± 0.036 mPa·s | 1.62 ± 0.034 mPa·s | – |
| CN1CCCC1=O [N-methylpyrrolidone] + CC1COC(=O)O1 | 1032.66 ± 1.6 kg/m3 | 1.677 ± 0.036 mPa·s | 1028.17 ± 1.6 kg/m3 | 1.536 ± 0.033 mPa·s | 1023.6 ± 1.6 kg/m3 | 1.429 ± 0.03 mPa·s | 1019.49 ± 1.6 kg/m3 | 1.338 ± 0.029 mPa·s | 1014.74 ± 1.6 kg/m3 | 1.248 ± 0.027 mPa·s | 1010.2 ± 1.6 kg/m3 | 1.178 ± 0.025 mPa·s | 1005.89 ± 1.6 kg/m3 | – | – | – | – | – | – | – |
| CN1CCCC1=O [N-methylpyrrolidone] | – | – | – | – | – | – | – | – | – | – | – | – | – | 1.677 ± 0.036 mPa·s | 1.536 ± 0.033 mPa·s | 1.429 ± 0.03 mPa·s | 1.338 ± 0.029 mPa·s | 1.248 ± 0.027 mPa·s | 1.178 ± 0.025 mPa·s | mass density ([2]; 293.15 K): 1032.66 ± 1.6 kg/m3; mass density ([2]; 298.15 K): 1028.17 ± 1.6 kg/m3; mass density ([2]; 303.15 K): 1023.6 ± 1.6 kg/m3; mass density ([2]; 308.15 K): 1019.49 ± 1.6 kg/m3; mass density ([2]; 313.15 K): 1014.74 ± 1.6 kg/m3; mass density ([2]; 318.15 K): 1010.2 ± 1.6 kg/m3; mass density ([2]; 323.15 K): 1005.89 ± 1.6 kg/m3 |
